# Key:
# [1] = standard testing procedures for biodegradability
# [2] = Linear Polarisation Resistance (LPR) Bubble test, corrosion rate
# Experimental: The corrosion inhibition (CI) performance of compounds and compositions of the invention and the performance of comparative examples was tested by means of Linear Polarisation Resistance (LPR) Bubble test measurements.
# In general, the LPR Bubble test method uses a test cell, typically made from glass, which is fitted with a probe containing electrodes which are connected to an electrochemical measurement system and associated software. The cell is also fitted with a gas inlet and frit to allow constant purging with CO2 gas. The cell can be loaded with test fluids, typically brine or a combination of brine and a suitable oil phase. The liquids may be stirred, typically at low or moderate speeds, or may be static. The instantaneous rate of corrosion can be measured throughout the experiment by means of the electrochemical probe which extends into the water phase. Other experiments, such as a cyclic sweep, or cyclic polarisation measurement, can also be performed.
# In our experiments, the LPR cells were loaded with 95 parts of water (brine) and 5 parts kerosene. The test temperature was 50° C. in all experiments, while details of the water phase pH values relevant to each water composition are given in this Table. The cells were continuously purged with CO2 gas and a stirring speed of 100 rpm was used.
# To perform the test, the electrode was allowed to pre-corrode for 2 hours, after which a test corrosion inhibitor composition was added to the kerosene phase. The test was then continued for a total of approximately 14 hours.
# Skeletonema costatum = test: ISO 10253 1998 water quality marine algal growth inhibition test; assay type: cell-based
# Experimental: Toxicity (EC50) was measured by a standard test: ISO 10253 1998 water quality—marine algal growth inhibition test with Skeletonema costatum.
# [3] = Table 5, Brine A, 10 ppm, blends also contain ethoxylated fatty acid ester and Na thiosulfate
# [4] = Brine B, 50° C., 10 ppm test chemical with sodium thiosulfate
molecule,measurement,setting,value
O=C([O-])c1ccccc1.[Na+] [sodium benzoate],biodegraded,[1]; after 7 days,about 85.5%
same,biodegraded,[1]; after 14 days,about 95%
same,biodegraded,[1]; after 28 days,100%
CCCCCCCCCC[N+](C)(C)CCCCCCCCCC [Mixture E],% Inhibition,[2]; [3],99.8%
same,Final corrosion rate,[2]; [3],0.009 mmpy
Na Oleyl amphoacetate,% Inhibition,"[2]; Brine A, 50° C., 10 ppm test chemical with sodium thiosulfate",96.81%
same,Final corrosion rate,"[2]; Brine A, 50° C., 10 ppm test chemical with sodium thiosulfate, 95:5 brine:kerosene, CO2 purge",0.12 mmpy
same,% Inhibition,[2]; [4],>99.99%
same,Final corrosion rate,[2]; [4],0.00014 mmpy
same,Algae toxicity (EC50),Skeletonema costatum,2.0 µg/mL

# From patent US10000641B2, “Method and composition for preventing corrosion of metal surfaces” (Ecolab USA Inc., priority 2010, dated 2018)
